The source of these data is US11834424B2, “Compounds useful as chaperone-mediated autophagy modulators” (ALBERT EINSTEIN COLLEGE OF MEDICINE, priority 2018, dated 2023).

The data set in a line: in vitro. The settings on record: human, microsomes; for CLint(mic) / Remaining (T = 60 min): 3 μM; for Remaining (T = 60 min): 1 h; for CLint scaled at 3 μM: CLint(liver). As to the method:
Microsome stability was determined in human, rat, and mouse, liver microsomes. Compound at 3 μM final concentration along with 0.5 mg/mL microsome protein and 1 mM NADPH was incubated for 0, 5, 15, 30 and 60 min. As a negative control, test compound was incubated with microsomes in the absence of NADPH. Samples were quenched with methanol and centrifuged for 25 min at 2500 rpm to precipitate proteins. Supernatants were analyzed (N=3) by LC-MS/MS. The In peak area ratio (compound peak area/internal standard peak area) was plotted against time and the gradient of the line determined the elimination rate constant [k=(−1)(slope)].
R^2 is the correlation coefficient of the linear regression for the determination of kinetic constant. T1/2 is the half life and CLint (mic) is the intrinsic clearance. CLint(liver)=CLint (mic)*mg microsomal protein/g liver weight*g liver weight/kg body weight. Liver weight/kg body weight is 20 g/kg for human.

One may read the half-life as the time needed for the level to fall by half in the phase considered. A high value points to slow decline. By CLint scaled is commonly meant the rate of metabolic loss divided by the concentration. Low values mean slow turnover, high ones rapid turnover.

`CC(=O)Nc1ccc(C2=Nc3ccc(Cl)cc3OC2)cc1` [CA77, reference compound]: the half-life at 3 μM turned out to be 34 min, the CLint(mic) is 40.8 µL/min/mg, the “Remaining (T = 60 min)” value is 25.9% and the CLint scaled at 3 μM was 36.7 mL/min/kg.

As to `CC(=O)Nc1ccc(-c2cnc3cc(Cl)ccc3n2)cc1` [CA77.1, N-(4-(6-chloroquinoxalin-2-yl)phenyl)acetamide], the half-life at 3 μM was 20.6 min, the CLint(mic) is 67.2 µL/min/mg, the “Remaining (T = 60 min)” value stood at 10.8% and the CLint scaled at 3 μM is 60.5 mL/min/kg.
